Data published in patent US20150086618A1, “PHOSPHOLIPID MICELLAR AND LIPOSOMAL COMPOSITIONS AND USES THEREOF” (THE BOARD OF TRUSTEES OF THE UNIVERSITY OF ILLINOIS, priority 2008, published 2015).
Where no end group is shown, it is not given here.

Legend:
[1] = test system: TREM-1 promoter-driven luciferase gene; assay: TREM1-luciferase reporter assay in RAW 264.7 macrophages stimulated with P. aeruginosa PA103; type: cell-based, mouse; settings: RAW 264.7 cells pre-treated 18 hr, then PA103 24 hr; compared to saline-treated PA103-stimulated cells
Description: Murine macrophages (RAW 264.7 cells) were transfected with a pro-inflammatory mediator ‘triggering receptor expressed on myeloid cells’ (TREM-1) promoter-driven luciferase gene. TREM-1 is an immunoglobulin superfamily (IgSF) molecule that amplifies inflammation and is a crucial mediator of septic shock (Bouchon et al., Nature 410: 1103-1107, 2001). The macrophages were pre-treated for 18 hr with the following treatments: (i) saline, (ii) SSM, (iii) sub-micellar concentration of lipid (lipid), (iv) GLP-SSM (GM), or (v) VIP-SSM (VM), in the presence or absence of Exendin(9-39) or (VIP(6-28). To allow for the presence of excess antagonist to compete with its respective peptide agonist for receptor binding, the concentration of each receptor antagonist used (10 μM) was 10 times greater than its peptide agonist (1 μM). Inflammation of cells was induced by the addition of the Gram-negative bacteria Pseudomonas aeruginosa (P. aeruginosa strain PA103) for an additional 24 hr, and luciferase activities were measured (see FIG. 1).
The preparation of samples was carried out as follows: The SSM stock solution (1.59 mM) was prepared by weighing approximately 2.23 mg of DSPE-PEG2000 into a round bottom flask (RBF). Saline (˜0.5 ml) was added to achieve a concentration of 1.59 mM. […]
TREM1 expression levels were determined as set out below. […]

[2] = α-helicity of LP17 and control peptide in saline and SSM; type: physicochemical; settings: peptide 20 μM, SSM 5 mM
Method: The α-helicity of LP17 (20 μM) in saline and in SSM (5 mM) was tested. A control peptide ([…] (SEQ ID NO:2)) was also tested in saline and in SSM at the same concentrations.

[3] = test system: NF-κB; assay: NF-κB-driven luciferase reporter assay in bone marrow-derived macrophages (BMDM) with LPS; type: cell-based, mice; settings: 24 h
Description: Bone marrow-derived macrophages (BMDM) from a primary macrophage cell line, extracted from mice transfected with a nuclear factor-kappa B (NF-κB)-driven luciferase reporter plasmid, were used in these experiments. In this cell line, the expression of NF-κB (a proinflammatory mediator) induces the expression of a luciferase gene in a concentration-dependent manner. Therefore, the expression level of NF-κB in BMDM can be quantified indirectly by the magnitude of luminescence produced [relative luminescence units (RLU)] via a luciferase assay. BMDM were subjected to treatment with either saline, saline+LPS, SSM, SSM+LPS, GLP, GLP+LPS, GLP-SSM (GM), GM+LPS, VIP, VIP+LPS, VIP-SSM (VM), and VM+LPS. The resulting inflammatory responses induced by the different agents was then quantified via a luciferase assay to determine the expression level of NF-κB.
Test reagents for use in the experiments were prepared using the following protocols as set out in detail below. SSM stock solution (1.56 mM): Weigh approximately 2.2 mg of DSPE-PEG2000 into a round bottom flask (RBF). Add the required volume of saline (˜0.5 ml) to achieve a concentration of 1.56 mM. Vortex the mixture for 2 minutes at maximum speed. Flush the solution with argon and equilibrate in the dark at 25° C. for at least 1 hour. […] Dissolve in the required volume of saline (˜30 μl) to form stock solution (173.3 μM). Test samples and controls were prepared as set out in Table 2, and samples and control were incubated at 25° C. for 2 h in the dark. VIP stock solution (176.67 μM≡587.57 μg/ml): Weigh approximately 12 μg of VIP peptide. Saline (˜20 μl) was added to form the stock solution (176.67 μM). LPS stock solution (LPS is weighed from lyophilized powder and dissolved in PBS; each well contains 1 μg/ml).
Preparation of cells for test: Extracted bone marrow cells were grown for 7 days in liquid culture medium (LCM) containing full medium. Old medium was removed and fresh medium (10-20 ml) was added. Cells were dislodged by scraping using a cell scraper, and the cells were counted. The concentration of cells was adjusted with medium to the test concentration of 10^5 cells/ml. Cells (10^5) (˜1 ml) were plated into each well of a 12-well plate. This procedure was repeated until 16 wells were plated with cells. Cells were incubated for 24 h at 37° C., 5% CO2. This allowed cells to adhere to the culture plate. After 24 h, medium was removed and replaced with serum-starved medium (with 2% FBS, phenol red containing DMEM and Pen/Strep (P/S)). Cells were incubated at 37° C., 5% CO2.
Determination of NF-κB expression level: Before addition of sample/control, the media was removed from each well; washed with PBS and 0.5 ml of serum free media (DMEM with no phenol red, FCS or antibiotics) was added into each well. Cells were treated as set out in Table 3 below. Cells were then incubated for 24 h at 37° C. The culture media was collected from each well. Remaining cells were washed twice with PBS; 100 μl of cell lysis buffer (luciferase kit) was added; cells were dislodged with a cell scraper and collected in centrifuge tubes. All samples were stored at −80° C. if not used immediately. The expression level of NF-kappa B (relative luminescence units (RLU)) in the cell lysate from each well was measured using a luciferase assay (Cat#1500, Promega). The protein content of each sample was measured using a Bradford protein assay to normalize results from the luciferase assay. The results are set out in Table 3 below and in FIG. 2.

Substance: Exendin (9-39)
- luciferase activity (expression level of TREM 1) [1]: absence of anti-inflammatory effect

Substance: TDSRCVIGLYHPPLQVY (SEQ ID NO:2) (listed as Mus musculus) [control peptide, control peptide for LP17]
- percent α-helicity in SSM compared to saline [2]: No significant difference

Substance: VIP(6-28): VIP receptor antagonist (FTDNYTRLRKQMAVKKYLNSILN; ends and bridges not checked; UniProt P01282 130-152, looked up, fragment)
- luciferase activity (expression level of TREM 1) [1]: absence of anti-inflammatory effect

Substance: vasoactive intestinal peptide (HSDAVFTDNYTRLRKQMAVKKYLNSILN; ends and bridges not checked; UniProt P01282 125-152, looked up) [VIP, peptide hormone containing 28 amino acid residues, free peptide in saline]
- Relative Luminescence Units (RLU) Normalized to Protein Concentration, Ave. ([3]; + LPS (1 μg/ml)): 311.39 RLU
- Relative Luminescence Units (RLU) Normalized to Protein Concentration, Trial 1 ([3]; + LPS (1 μg/ml)): 329.26 RLU
- Relative Luminescence Units (RLU) Normalized to Protein Concentration, Trial 2 ([3]; + LPS (1 μg/ml)): 342.42 RLU
- Relative Luminescence Units (RLU) Normalized to Protein Concentration, Trial 3 ([3]; + LPS (1 μg/ml)): 306.81 RLU
- Relative Luminescence Units (RLU) Normalized to Protein Concentration, Trial 4 ([3]; + LPS (1 μg/ml)): 267.10 RLU
- Relative Luminescence Units (RLU) Normalized to Protein Concentration, Ave. ([3]; control without LPS): 73.70 RLU
- Relative Luminescence Units (RLU) Normalized to Protein Concentration, Trial 1 ([3]; control without LPS): 57.78 RLU
- Relative Luminescence Units (RLU) Normalized to Protein Concentration, Trial 2 ([3]; control without LPS): 90.09 RLU
- Relative Luminescence Units (RLU) Normalized to Protein Concentration, Trial 3 ([3]; control without LPS): 60.50 RLU
- Relative Luminescence Units (RLU) Normalized to Protein Concentration, Trial 4 ([3]; control without LPS): 86.45 RLU
